Experimental data as given in US20090281025A1, “INHIBITION OF TUMOR GROWTH AND METASTASIS BY ATF2-DERIVED PEPTIDES” (Mount Sinai School Of Medicine of New York University, priority 2004, published 2009).
Where “and” joins values, the source holds several entries; their conditions need not be identical. Equal values may be shown once.

What was measured:
[1] = test system: early-stage melanoma, melanocytes, in vitro transformed 293T cells; conditions: cited from earlier work
[2] = test system: Human melanoma cells LU1205; experiment: Caspase and PARP cleavage immunoblot in LU1205 cells; assay type: cell-based; conditions: peptides by transfection, UCN-01 (5 μm) 24 hours
Method: Human melanoma cells LU1205 were transfected with the nucleic acid molecules that encode either ATF2^51-100 peptide or ATF2^51-60 peptide. Twenty-four hours after transfection, cells were treated with of UCN-01 (5 μm) for 24 hours. Immunoblotting analysis was performed using caspase 9 and PARP antibodies, and β-actin was used as a loading control (FIG. 6A). The same experiment was performed in SW-1 cells (FIG. 6B). Stars point to the position of the uncleaved form whereas arrows point to the cleaved products.
Effect on Apoptosis. Assessed next was the degree of apoptosis in SW1 cells under normal growth (spontaneous) as well as following treatment with chemotherapeutic drugs. Cells were analyzed to detect spontaneous (basal) or induced apoptosis [following treatment with the kinase inhibitor UCN-01 (kindly provided by NCI repository) for 36 hours]. Apoptosis was measured by using FACS (Ivanov et al., Mol. Cell, 2001, 7:517-28) to quantify the percentage of hypodiploid nuclei undergoing DNA fragmentation. Nucleation as a marker of apoptosis was monitored via DAPI staining of cells at indicated time points after their treatment. Caspase activity was monitored by immunoblots using antibodies to caspase 9 (Santa Cruz). PARP cleavage was monitored by corresponding antibodies (PharMingen).

[3] = test system: TRE-Luc; experiment: TRE-Luc luciferase reporter assay in SW1 cells; assay type: cell-based, mouse; conditions: SW1 cells expressing peptide, luciferase after 18 hours
Method: (§1) SW1 cells constitutively expressing the indicated ATF2 peptides were transfected with either TRE-Luc (FIG. 5A) or with Jun2-Luc (FIG. 5B), and proteins were prepared for analysis of luciferase activity after 18 hours. Analysis was performed in duplicate, and the data reflect three independent experiments. SW1 cells expressing the ATF2 peptides were analyzed to establish the degree of spontaneous (basal) apoptosis as well as apoptosis 24 hours following treatment with the chemotherapeutic drug UCN-01 (FIG. 5C). The data represent triplicate analysis reproduced three times.
(§2) Alteration of ATF2 Transcriptional Activity. Assessed next was whether the short peptide caused any change in transcriptional activity mediated by ATF2 and its heterodimeric partners, using the TRE and Jun2 promoter sequences linked to the Luciferase marker gene. These reporter constructs (0.3 μg) were cotransfected with the respective expression vectors into melanoma cells (5×10^5) using Lipofectamine (Invitrogen). Luciferase activity was measured using the Luciferase assay system (Promega).

[4] = test system: MCF7 human breast cancer cells; conditions: cited from earlier work
[5] = test system: Jun2-Luc; experiment: Jun2-Luc luciferase reporter assay in SW1 cells; assay type: cell-based, mouse; conditions: SW1 cells expressing peptide, luciferase after 18 hours
Method: as §1, §2

[6] = test system: JNK; conditions: cited from earlier work
[7] = test system: SW1 tumors; experiment: cDNA microarray gene expression profiling of SW1 tumors; assay type: in vivo, mouse; conditions: down regulated, hybridizations #1-#4, listed as ATFp2
Excerpt: FIGS. 8A and 8B show gene profiling analysis of SW1 tumors expressing the ATF2^51-100 peptide. Tumors generated, in the absence or presence of a peptide, were used as source of mRNA for array analysis of 10K mouse genes (see Example 5). […] In all cases, the data represent analyses carried out 4 times from 4 different pools of tumors.
To elucidate the molecular pathways affected by expression of the ATF2^51-100 peptide, we used cDNA microarray analysis to compare the RNA expression profiles of SW1 tumors that express this peptide or a control vector (FIG. 8A). The 10k mouse Gem 2 gene set (Incyte Genomics Inc, Palo Alto, Calif.) was printed at the NCI on poly-L-lysine-coated glass using a Biorobotics TASII arrayer (Cambridge, England). All protocols for manufacturing and hybridization of microarrays are posted on the NCI web site (see, e.g., nciarray.nci.nih.gov). Approximately 20 μg of total RNA were used in the reverse transcription reaction to directly label the probe with Cy-5 dUTP or Cy-3 dUTP (Amersham). Hybridizations were performed at 65° C. for 12-18 h in a hybridization volume of 35 μL. The hybridized arrays were scanned using an Axon GenePix 4000 scanner (Union City, Calif.) and fluorescence data were collected using the GenePix software.
mRNA was prepared from a pool of 4 tumors obtained from two different experiments. In both cases, tumors were excised 2 weeks after subcutaneous injection of cells. Because the fluorescently labeled Cy dyes may incorporate into the reverse-transcribed cDNA with different efficiencies, RNA isolated from both cell types was always labeled with both combinations of Cy dyes. […] SW1 vector control cells were labeled with Cy-3 (F532) and the SW1-ATF 51-100 cells were labeled with Cy-5 (F635).

- Ratio ATFp2-Cy5 vs parental control-Cy3: Hadh (hydroxyacyl-Coenzyme A dehydrogenase) ([7]; IMAGE: 368571): 0.3738 and 0.3752 and 0.5471 and 0.6286
- Ratio ATFp2-Cy5 vs parental control-Cy3: Crabp1 (cellular retinoic acid binding protein I) ([7]; IMAGE: 406272): 0.3248 and 0.361 and 0.3150 and 0.3569
- Ratio ATFp2-Cy5 vs parental control-Cy3: Ptk2 (PTK2 protein tyrosine kinase 2) ([7]; IMAGE: 577544): 0.3803 and 0.3817 and 0.3913 and 0.4599
- Ratio ATFp2-Cy5 vs parental control-Cy3: Casp6 (caspase 6) ([7]; IMAGE: 636228): 0.3777 and 0.3791 and 0.4947 and 0.6368
- Ratio ATFp2-Cy5 vs parental control-Cy3: S100a9 (S100 calcium-binding protein A9 (calgranulin B)) ([7]; IMAGE: 720190): 0.3486 and 0.3498 and 0.362 and 0.3547
- Ratio ATFp2-Cy5 vs parental control-Cy3: Lgals7 (lectin galactose binding, soluble 7) ([7]; IMAGE: 1023899): 0.4381 and 0.4397 and 0.4481 and 0.4781
Substance: ATF2^51-100: amino-terminal peptide of ATF2, amino acid residue 51 to 100 (about a 50 amino acid peptide), expressed in tumor cells (MTLKFGPARNDSVIVADQTPTPTRFLKNCEEVGLFNELASPFENEFKKAS; UniProt P15336 51-100, looked up, fragment)
- sensitization by ATF2 peptide [1]: not in early-stage melanoma, or melanocytes, or in in vitro transformed 293T cells
- activation of caspase 9 (cleavage fragments) [2]: activation of caspase 9 even prior to treatment with UCN-01
- TRE-Luc activity [3]: marked increase
- sensitization by ATF2 peptide [4]: also observed
- Jun2-Luc transcriptional activity [5]: efficiently inhibited
- basal JNK activity [6]: increased basal JNK activity
- binding to JNK [6]: binds to JNK
- Ratio ATFp2-Cy5 vs parental control-Cy3: Mt2 (metallothionein 2) ([7]; IMAGE: 334351): 0.3874 and 0.3888 and 0.4649 and 0.5780
- Ratio ATFp2-Cy5 vs parental control-Cy3: RIKEN cDNA 2900002K07 gene ([7]; IMAGE: 516935): 0.3227 and 0.3239 and 0.2740 and 0.3014
- Ratio ATFp2-Cy5 vs parental control-Cy3: Ifit1 (interferon-induced protein with tetratricopeptide repeats 1) ([7]; IMAGE: 616653): 0.2354 and 0.2363 and 0.2637 and 0.3054
- Ratio ATFp2-Cy5 vs parental control-Cy3: ESTs ([7]; IMAGE: 619632): 0.4707 and 0.4724 and 0.3928 and 0.6046
- Ratio ATFp2-Cy5 vs parental control-Cy3: Scya12 (small inducible cytokine A12) ([7]; IMAGE: 620800): 0.2911 and 0.2922 and 0.3318 and 0.4279
- Ratio ATFp2-Cy5 vs parental control-Cy3: ESTs ([7]; IMAGE: 621129): 0.4938 and 0.4955 and 0.3268 and 0.3091
- Ratio ATFp2-Cy5 vs parental control-Cy3: Igh-1 (immunoglobulin heavy chain 1 (serum IgG2a)) ([7]; IMAGE: 636695): 0.3565 and 0.3578 and 0.4847 and 0.6503
- Ratio ATFp2-Cy5 vs parental control-Cy3: Jsp18 (ubiquitin specific protease 18) ([7]; IMAGE: 751642): 0.3213 and 0.3225 and 0.2989 and 0.2958
- Ratio ATFp2-Cy5 vs parental control-Cy3: Plat (plasminogen activator, tissue) ([7]; IMAGE: 836124): 0.4074 and 0.4089 and 0.4019 and 0.5488
- Ratio ATFp2-Cy5 vs parental control-Cy3: G0s2 (G0/G1 switch gene 2) ([7]; IMAGE: 864447): 0.4421 and 0.4583 and 0.383 and 0.3949
- Ratio ATFp2-Cy5 vs parental control-Cy3: Xlr (X-linked lymphocyte-regulated complex) ([7]; IMAGE: 1022928): 0.1598 and 0.1572 and 0.1540 and 0.1537
- Ratio ATFp2-Cy5 vs parental control-Cy3: Mus musculus, clone MGC: 19199 IMAGE: 4236882, mRNA, complete cds ([7]; IMAGE: 1037652): 0.4768 and 0.4785 and 0.4402 and 0.4792
- Ratio ATFp2-Cy5 vs parental control-Cy3: Isg15 (interferon-stimulated protein (15 kDa)) ([7]; IMAGE: 1068714): 0.321 and 0.4337 and 0.4643 and 0.5141
